Data from patent US4472304A, “(Amido)N-substituted bleomycins, salts thereof and process for preparation thereof” (Nippon Kayaku Kabushiki Kaisha, priority 1981, dated 1984).

Legend:
[1] = test system: Bacillus subtilis; assay: Antimicrobial activity against Bacillus subtilis (agar plate-cylinder); format: cell-based; settings: standard bleomycin A2 (copper-free) assumed 1,000 mcg potency/mg
Method: (§1) 2. ANT[…] MYC[…] ATCC 607 AND BACILLUS SUBTILIS
(§2) The antimicrobial activity was tested against the captioned test organisms by the method of agar plate-cylinder. The activity was recorded on the assumption that the activity of standard sample of bleomycin A2 (copper-free form) is 1,000 mcg poteney/mg.

[2] = test system: pulmonary fibrosis; assay: Pulmonary toxicity (pulmonary fibrosis) in mice; settings: for Incidence: Number of mice with pulmonary fibrosis (%) / Incidence: Number of mice with pulmonary fibrosis / Grade: Total score of pulmonary fibrosis/total number of samples / Grade: Total score of pulmonary fibrosis/total number of samples (%): ICR mice, 5 mg/kg i.p. once a day for 10 days; for Incidence: Number of mice with pulmonary fibrosis (%) / Incidence: Number of mice with pulmonary fibrosis: 5 weeks observation; for Incidence: Number of mice with pulmonary fibrosis: mice with fibrosis/total; for Grade: Total score of pulmonary fibrosis/total number of samples / Grade: Total score of pulmonary fibrosis/total number of samples (%): points 0, 1, 2, 4, 6; for Ratio (by comparison with "Bleomycin Complex"): versus Bleomycin Complex
[3] = test system: Mycobacterium smegmatis ATCC 607; assay: Antimicrobial activity against Mycobacterium smegmatis ATCC 607 (agar plate-cylinder); format: cell-based; settings: standard bleomycin A2 (copper-free) assumed 1,000 mcg potency/mg
Method: as §1, §2

Cc1c(N)nc(C(CC(N)=O)NCC(N)C(=O)NC(C)C)nc1C(=O)NC(C(=O)NC(C)C(O)C(C)C(=O)NC(C(=O)NCCc1nc(-c2nc(C(=O)NCCCNC(C)c3ccccc3)cs2)cs1)C(C)O)C(OC1OC(CO)C(O)C(O)C1OC1OC(CO)C(O)C(OC(N)=O)C1O)c1cnc[nH]1 [Compound 21, 3-((S)-1'-phenylethyl)aminopropylamino-(amido)N--[isopropyl]-BLM]
Antimicrobial potency of Cu-free compound against Bacillus subtilis [1]: 962 mcg potency/mg | Incidence: Number of mice with pulmonary fibrosis (%) [2]: 38% | Incidence: Number of mice with pulmonary fibrosis [2]: 3/8 | Grade: Total score of pulmonary fibrosis/total number of samples [2]: 5/24 | Grade: Total score of pulmonary fibrosis/total number of samples (%) [2]: 21% | Ratio (by comparison with "Bleomycin Complex") [2]: 0.27 | Antimicrobial potency of Cu-free compound against Mycobacterium smegmatis ATCC 607 [3]: 11998 mcg potency/mg

Cc1c(N)nc(C(CC(N)=O)NCC(N)C(=O)NCCCNC(C)c2ccccc2)nc1C(=O)NC(C(=O)NC(C)C(O)C(C)C(=O)NC(C(=O)NCCc1nc(-c2nc(C(=O)NCCCNC(C)c3ccccc3)cs2)cs1)C(C)O)C(OC1OC(CO)C(O)C(O)C1OC1OC(CO)C(O)C(OC(N)=O)C1O)c1cnc[nH]1 [Compound 22, 3-((S)-1'-phenylethyl)aminopropylamino-(amido)N--[3-((S)-1'-phenylethyl)aminopropyl]-BLM]
Antimicrobial potency of Cu-free compound against Bacillus subtilis [1]: 2800 mcg potency/mg | Incidence: Number of mice with pulmonary fibrosis (%) [2]: 13% | Incidence: Number of mice with pulmonary fibrosis [2]: 1/8 | Grade: Total score of pulmonary fibrosis/total number of samples [2]: 1/21 | Grade: Total score of pulmonary fibrosis/total number of samples (%) [2]: 4% | Ratio (by comparison with "Bleomycin Complex") [2]: 0.05 | Antimicrobial potency of Cu-free compound against Mycobacterium smegmatis ATCC 607 [3]: 28030 mcg potency/mg

Cc1c(N)nc(C(CC(N)=O)NCC(N)C(=O)NCCN2CCNCC2)nc1C(=O)NC(C(=O)NC(C)C(O)C(C)C(=O)NC(C(=O)NCCc1nc(-c2nc(C(=O)NCCCNC(C)c3ccccc3)cs2)cs1)C(C)O)C(OC1OC(CO)C(O)C(O)C1OC1OC(CO)C(O)C(OC(N)=O)C1O)c1cnc[nH]1 [Compound 33, 3-((S)-1'-phenylethylamino)propylamino-(amido)N--[2-(1-piperazinyl)ethyl]-BLM]
Antimicrobial potency of Cu-free compound against Bacillus subtilis [1]: 5009 mcg potency/mg | Incidence: Number of mice with pulmonary fibrosis (%) [2]: 56% | Incidence: Number of mice with pulmonary fibrosis [2]: 5/9 | Grade: Total score of pulmonary fibrosis/total number of samples [2]: 11/27 | Grade: Total score of pulmonary fibrosis/total number of samples (%) [2]: 41% | Ratio (by comparison with "Bleomycin Complex") [2]: 0.44 | Antimicrobial potency of Cu-free compound against Mycobacterium smegmatis ATCC 607 [3]: 6359 mcg potency/mg

CCCCN(CCCC)CCCNC(=O)C(N)CNC(CC(N)=O)c1nc(N)c(C)c(C(=O)NC(C(=O)NC(C)C(O)C(C)C(=O)NC(C(=O)NCCc2nc(-c3nc(C(=O)NCCCNC(C)c4ccccc4)cs3)cs2)C(C)O)C(OC2OC(CO)C(O)C(O)C2OC2OC(CO)C(O)C(OC(N)=O)C2O)c2cnc[nH]2)n1 [Compound 34, 3-((S)-1'-phenylethylamino)propylamino-(amido)N--[3-(di-n-butylamino)propyl]-BLM]
Antimicrobial potency of Cu-free compound against Bacillus subtilis [1]: 2843 mcg potency/mg | Incidence: Number of mice with pulmonary fibrosis (%) [2]: 0% | Incidence: Number of mice with pulmonary fibrosis [2]: 0/8 | Grade: Total score of pulmonary fibrosis/total number of samples [2]: 0/24 | Grade: Total score of pulmonary fibrosis/total number of samples (%) [2]: 0% | Ratio (by comparison with "Bleomycin Complex") [2]: 0 | Antimicrobial potency of Cu-free compound against Mycobacterium smegmatis ATCC 607 [3]: 26023 mcg potency/mg

CCCCNCCCN(C)CCCNC(=O)c1csc(-c2csc(CCNC(=O)C(NC(=O)C(C)C(O)C(C)NC(=O)C(NC(=O)c3nc(C(CC(N)=O)NCC(N)C(=O)NC(C)C)nc(N)c3C)C(OC3OC(CO)C(O)C(O)C3OC3OC(CO)C(O)C(OC(N)=O)C3O)c3cnc[nH]3)C(C)O)n2)n1 (stereo not drawn) [Compound 37, 3-[N--methyl-N--(3-n-butylaminopropyl)amino]propylamino-(amido)N--[isopropyl]-BLM]
Antimicrobial potency of Cu-free compound against Bacillus subtilis [1]: 20048 mcg potency/mg | Incidence: Number of mice with pulmonary fibrosis (%) [2]: 33% | Incidence: Number of mice with pulmonary fibrosis [2]: 3/9 | Grade: Total score of pulmonary fibrosis/total number of samples [2]: 13/27 | Grade: Total score of pulmonary fibrosis/total number of samples (%) [2]: 48% | Ratio (by comparison with "Bleomycin Complex") [2]: 0.46 | Antimicrobial potency of Cu-free compound against Mycobacterium smegmatis ATCC 607 [3]: 13210 mcg potency/mg

CCCCNCCCN(C)CCCNC(=O)c1csc(-c2csc(CCNC(=O)C(NC(=O)C(C)C(O)C(C)NC(=O)C(NC(=O)c3nc(C(CC(N)=O)NCC(N)C(=O)NCCCN(C)CCCNCCCC)nc(N)c3C)C(OC3OC(CO)C(O)C(O)C3OC3OC(CO)C(O)C(OC(N)=O)C3O)c3cnc[nH]3)C(C)O)n2)n1 (stereo not drawn) [Compound 38, 3-[N--methyl-N--(3-n-butylaminopropyl)amino]propylamino-(amido)N--{3-[N--methyl-N--(3-n-butylaminopropyl)amino]-propyl}-BLM]
Antimicrobial potency of Cu-free compound against Bacillus subtilis [1]: 6600 mcg potency/mg | Incidence: Number of mice with pulmonary fibrosis (%) [2]: 71% | Incidence: Number of mice with pulmonary fibrosis [2]: 5/7 | Grade: Total score of pulmonary fibrosis/total number of samples [2]: 7/21 | Grade: Total score of pulmonary fibrosis/total number of samples (%) [2]: 33% | Ratio (by comparison with "Bleomycin Complex") [2]: 0.32 | Antimicrobial potency of Cu-free compound against Mycobacterium smegmatis ATCC 607 [3]: 5100 mcg potency/mg

Cc1c(N)nc(C(CC(N)=O)NCC(N)C(=O)NCCCNC(C)c2ccccc2)nc1C(=O)NC(C(=O)NC(C)C(O)C(C)C(=O)NC(C(=O)NCCc1nc(-c2nc(C(=O)NCCCN(C)CCCNCc3ccc(Cl)cc3)cs2)cs1)C(C)O)C(OC1OC(CO)C(O)C(O)C1OC1OC(CO)C(O)C(OC(N)=O)C1O)c1cnc[nH]1 [Compound 39, 3-{N--methyl-N--[3-(p-chlorobenzyl)aminopropyl]amino}-propylamino-(amino)N--[3-(S)-1'-phenylethyl)aminopropyl]-BLM]
Antimicrobial potency of Cu-free compound against Bacillus subtilis [1]: 2590 mcg potency/mg | Incidence: Number of mice with pulmonary fibrosis (%) [2]: 20% | Incidence: Number of mice with pulmonary fibrosis [2]: 2/9 | Grade: Total score of pulmonary fibrosis/total number of samples [2]: 2/27 | Grade: Total score of pulmonary fibrosis/total number of samples (%) [2]: 7% | Ratio (by comparison with "Bleomycin Complex") [2]: 0.07 | Antimicrobial potency of Cu-free compound against Mycobacterium smegmatis ATCC 607 [3]: 14880 mcg potency/mg

Cc1c(N)nc(C(CC(N)=O)NCC(N)C(=O)NCCCNC(C)c2ccccc2)nc1C(=O)NC(C(=O)NC(C)C(O)C(C)C(=O)NC(C(=O)NCCc1nc(-c2nc(C(=O)NCCCN(C)CCCNCCc3ccc(Cl)cc3)cs2)cs1)C(C)O)C(OC1OC(CO)C(O)C(O)C1OC1OC(CO)C(O)C(OC(N)=O)C1O)c1cnc[nH]1 [Compound 43, 3-{N--methyl-N--[3-(2-(p-chlorophenyl)ethyl)aminopropyl]amino}-propylamino-(amido)N--[3-((S)-1'-phenylethyl)aminopropyl]-BLM]
Antimicrobial potency of Cu-free compound against Bacillus subtilis [1]: 4267 mcg potency/mg | Incidence: Number of mice with pulmonary fibrosis (%) [2]: 0% | Incidence: Number of mice with pulmonary fibrosis [2]: 0/1 | Grade: Total score of pulmonary fibrosis/total number of samples [2]: 0/3 | Grade: Total score of pulmonary fibrosis/total number of samples (%) [2]: 0% | Ratio (by comparison with "Bleomycin Complex") [2]: 0 | Antimicrobial potency of Cu-free compound against Mycobacterium smegmatis ATCC 607 [3]: 15593 mcg potency/mg

Cc1c(N)nc(C(CC(N)=O)NCC(N)C(=O)NCCCN(C)CCCNCCc2ccc(Cl)cc2)nc1C(=O)NC(C(=O)NC(C)C(O)C(C)C(=O)NC(C(=O)NCCc1nc(-c2nc(C(=O)NCCCN(C)CCCNCCc3ccc(Cl)cc3)cs2)cs1)C(C)O)C(OC1OC(CO)C(O)C(O)C1OC1OC(CO)C(O)C(OC(N)=O)C1O)c1cnc[nH]1 (stereo not drawn) [Compound 45, 3-{N--methyl-N--[3-(2-(p-chlorophenyl)ethyl)aminopropyl]amino}-propylamino(amido)N--{3-[N-- methyl-N--[3-(2-(p-chlorophenyl)-ethyl)aminopropyl]amino]propyl}-BLM]
Antimicrobial potency of Cu-free compound against Bacillus subtilis [1]: 270 mcg potency/mg | Incidence: Number of mice with pulmonary fibrosis (%) [2]: 0% | Incidence: Number of mice with pulmonary fibrosis [2]: 0/9 | Grade: Total score of pulmonary fibrosis/total number of samples [2]: 0/27 | Grade: Total score of pulmonary fibrosis/total number of samples (%) [2]: 0% | Ratio (by comparison with "Bleomycin Complex") [2]: 0 | Antimicrobial potency of Cu-free compound against Mycobacterium smegmatis ATCC 607 [3]: 650 mcg potency/mg

Cc1c(N)nc(C(CC(N)=O)NCC(N)C(=O)NCCCNC(C)c2ccccc2)nc1C(=O)NC(C(=O)NC(C)C(O)C(C)C(=O)NC(C(=O)NCCc1nc(-c2nc(C(=O)NCCC[N+](C)(CCCN(Cc3ccccc3)Cc3ccccc3)Cc3ccccc3)cs2)cs1)C(C)O)C(OC1OC(CO)C(O)C(O)C1OC1OC(CO)C(O)C(OC(N)=O)C1O)c1cnc[nH]1 [Compound 47, 3-{N--methyl-N--benzyl-N--[3-(dibenzylamino)propylamino}-propylamino-(amido)N--[3-((S)-1'-phenylethyl)aminopropyl]-BLM]
Antimicrobial potency of Cu-free compound against Bacillus subtilis [1]: 180 mcg potency/mg | Incidence: Number of mice with pulmonary fibrosis (%) [2]: 0% | Incidence: Number of mice with pulmonary fibrosis [2]: 0/8 | Grade: Total score of pulmonary fibrosis/total number of samples [2]: 0/24 | Grade: Total score of pulmonary fibrosis/total number of samples (%) [2]: 0% | Ratio (by comparison with "Bleomycin Complex") [2]: 0 | Antimicrobial potency of Cu-free compound against Mycobacterium smegmatis ATCC 607 [3]: 5900 mcg potency/mg

Cc1c(N)nc(C(CC(N)=O)NCC(N)C(=O)NCCCNC(C)c2ccccc2)nc1C(=O)NC(C(=O)NC(C)C(O)C(C)C(=O)NC(C(=O)NCCc1nc(-c2nc(C(=O)NCCCN(C)CCCNCc3ccc(C#N)cc3)cs2)cs1)C(C)O)C(OC1OC(CO)C(O)C(O)C1OC1OC(CO)C(O)C(OC(N)=O)C1O)c1cnc[nH]1 [Compound 63, 3-{N--methyl-N--[3-(p-cyanobenzylamino)propyl]amino]propylamino-(amido)N--[(3-((S)-1'-phenylethylamino)propyl]-BLM]
Antimicrobial potency of Cu-free compound against Bacillus subtilis [1]: 11056 mcg potency/mg | Antimicrobial potency of Cu-free compound against Mycobacterium smegmatis ATCC 607 [3]: 21877 mcg potency/mg
